Data reported in PubChem BioAssay AID264 (DTP/NCI, 2004).
Several values for one entry are separate records, joined by “and”; a condition that tells them apart may be missing. Equal values may be shown once. Records with an inconclusive call do not appear.

Tested on: nude mice, LX-1 lung xenograft intrarenal, tumor weight T/C
Assay: NCI In Vivo Anticancer Drug Screen. Data for tumor model Human Lung LX-1 Xenograft (intrarenal inoculation) in NU/NU Swiss (nude) mice
Conditions: endpoint: mean tumor weight change, higher = larger tumour
Experimental: The antitumor activity of compounds was measured in mice bearing transplantable tumors. Survival or tumor size were measured and the results are expressed as the measurement made in the treated group (T) divided by the measurement made in the vehicle treated control group (C). The tumor model used in this assay is Human Lung LX-1 Xenograft (intrarenal inoculation) in NU/NU Swiss (nude) mice

[1] = dose: 150.0 mg/kg/injection, schedule: Q04DX003 (sc), vehicle: saline with Tween-80
[2] = dose: 300.0 mg/kg/injection, schedule: Q04DX003 (sc), vehicle: saline with Tween-80
[3] = dose: 600.0 mg/kg/injection, schedule: Q04DX003 (sc), vehicle: saline with Tween-80
[4] = dose: 1200.0 mg/kg/injection, schedule: Q04DX003 (sc), vehicle: saline with Tween-80
[5] = dose: 25.0 mg/kg/injection, schedule: Q01DX010 (sc), vehicle: saline
[6] = dose: 50.0 mg/kg/injection, schedule: Q01DX010 (sc), vehicle: saline
[7] = dose: 16.0 mg/kg/injection, schedule: Q04DX003 (sc), vehicle: saline with Tween-80
[8] = dose: 50.0 mg/kg/injection, schedule: Q01DX010 (sc), vehicle: Klucel (hydroxypropylcellulose) (HPC)
[9] = dose: 200.0 mg/kg/injection, schedule: Q01DX010 (sc), vehicle: Klucel (hydroxypropylcellulose) (HPC)
[10] = dose: 25.0 mg/kg/injection, schedule: Q01DX010 (sc), vehicle: Klucel (hydroxypropylcellulose) (HPC)
[11] = dose: 100.0 mg/kg/injection, schedule: Q01DX010 (sc), vehicle: Klucel (hydroxypropylcellulose) (HPC)

Which T/C [1] does the source give for `CC(=O)ON(C(C)=O)c1ccc(C(N)=O)cc1` here?
Its T/C is 110 % of control.

What about the T/C [2] of the same molecule?
Its T/C is 114 % of control.

And the T/C [3]?
Its T/C is 100 % of control.

And the T/C [4]?
The T/C was 97 % of control.

For `Cn1/c2cc/c1=C(\c1ccc(S(=O)(=O)O)cc1)c1ccc([n-]1)/C(c1ccc(S(=O)(=O)O)cc1)=c1/cc/c([nH]1)=C(\c1ccc(S(=O)(=O)O)cc1)c1ccc([n-]1)/C=2c1ccc(S(=O)(=O)O)cc1.O.O=S(=O)(O)C(F)(F)F.[Cu+2]`, which T/C (dose: 200.0 mg/kg/injection, schedule: Q04DX003 (sc), vehicle: suspension in saline) is on record?
Its T/C is 100 % of control.

What about the T/C (dose: 400.0 mg/kg/injection, schedule: Q04DX003 (sc), vehicle: suspension in saline) of the same molecule?
Its T/C is 109 % of control.

What about the T/C (dose: 800.0 mg/kg/injection, schedule: Q04DX003 (sc), vehicle: suspension in saline) of the same molecule?
Its T/C is 94 % of control.

Which T/C [5] does the source give for `Nc1ncnc2c1ncn2C1OC(CO)C(O)C1O` (stereo not given) here?
Its T/C is 156 % of control.

And the T/C [6]?
The T/C was 97 % of control.

And the T/C (dose: 200.0 mg/kg/injection, schedule: Q04DX003 (sc), vehicle: saline)?
Its T/C is 102 % of control.

What about the T/C (dose: 400.0 mg/kg/injection, schedule: Q04DX003 (sc), vehicle: saline) of the same molecule?
Its T/C is 20 % of control.

And the T/C (dose: 800.0 mg/kg/injection, schedule: Q04DX003 (sc), vehicle: saline)?
Its T/C is 117 % of control.

And the T/C (dose: 1600.0 mg/kg/injection, schedule: Q04DX003 (sc), vehicle: saline)?
The T/C was 70 % of control.

Which results are given for `c1cc[c]([Sn]([NH]c2ncnc3[nH]cnc23)([NH]c2ncnc3[nH]cnc23)[c]2ccccc2)cc1`?
T/C (dose: 300.0 mg/kg/injection, schedule: Q04DX003 (sc), vehicle: suspension in saline): 85 % of control; T/C (dose: 600.0 mg/kg/injection, schedule: Q04DX003 (sc), vehicle: suspension in saline): 84 % of control; T/C (dose: 1200.0 mg/kg/injection, schedule: Q04DX003 (sc), vehicle: suspension in saline): 82 % of control; T/C (dose: 2400.0 mg/kg/injection, schedule: Q04DX003 (sc), vehicle: suspension in saline): 64 % of control

For `CC[C@@]1(O)C[C@H](OC2CC(N(C)C)C(OC3CC(O)C(OC4CCC(=O)C(C)O4)C(C)O3)C(C)O2)c2c(cc3c(c2O)C(=O)c2c(O)ccc(O)c2C3=O)[C@H]1C(=O)OC` (stereo not given in full), which T/C (dose: 3.0 mg/kg/injection, schedule: Q04DX003 (sc), vehicle: water) is on record?
Its T/C is 51 % of control.

And the T/C (dose: 6.0 mg/kg/injection, schedule: Q04DX003 (sc), vehicle: water)?
Its T/C is 79 % of control.

Which T/C (dose: 100.0 mg/kg/injection, schedule: Q01DX010 (sc), vehicle: saline with Tween-80) does the source give for `CCOC(=O)c1ccc(NC(=O)Nc2nccs2)cc1` here?
Its T/C is 99 % of control.

What about the T/C (dose: 200.0 mg/kg/injection, schedule: Q01DX010 (sc), vehicle: saline with Tween-80) of the same molecule?
Its T/C is 107 % of control.

What about the T/C (dose: 400.0 mg/kg/injection, schedule: Q01DX010 (sc), vehicle: saline with Tween-80) of the same molecule?
The T/C was 92 % of control.

What about the T/C (dose: 800.0 mg/kg/injection, schedule: Q01DX010 (sc), vehicle: saline with Tween-80) of the same molecule?
The T/C was 66 % of control.

Which results are given for `CCCCC1CCCCCCc2[nH]c(/C=C3\N=C(c4ccc[nH]4)C=C3OC)cc21` (stereo not given)?
T/C (dose: 4.0 mg/kg/injection, schedule: Q04DX003 (sc), vehicle: saline with Tween-80): 61 % of control; T/C (dose: 8.0 mg/kg/injection, schedule: Q04DX003 (sc), vehicle: saline with Tween-80): 66 % of control; T/C [7]: 55 % of control

With `Cc1ccc(S(=O)(=O)N/N=C/C(=O)O)cc1` as the molecule, how does the T/C (dose: 12.5 mg/kg/injection, schedule: Q01DX010 (sc), vehicle: Klucel (hydroxypropylcellulose) (HPC)) read?
The T/C was 98 % of control.

What about the T/C [8] of the same molecule?
The T/C was 37 % of control and 55 % of control.

And the T/C [9]?
Its T/C is 45 % of control.

And the T/C (dose: 400.0 mg/kg/injection, schedule: Q01DX010 (sc), vehicle: Klucel (hydroxypropylcellulose) (HPC))?
The T/C was 58 % of control.

For `COC(=O)Nc1cccc(-c2nc3ccc(NC(=O)OC)cc3c(=O)n2-c2ccccc2)c1`, which T/C [10] is on record?
The T/C was 99 % of control.

And the T/C [8]?
The T/C was 160 % of control.

What about the T/C [11] of the same molecule?
The T/C was 93 % of control.

What about the T/C [9] of the same molecule?
Its T/C is 84 % of control.

`COC1=CC(=O)C(OC)=C(OC)C1=O` was tested. Which T/C (dose: 38.0 mg/kg/injection, schedule: Q04DX003 (sc), vehicle: saline with Tween-80) did it give?
The T/C was 122 % of control.

And the T/C (dose: 75.0 mg/kg/injection, schedule: Q04DX003 (sc), vehicle: saline with Tween-80)?
The T/C was 72 % of control.

And the T/C [1]?
Its T/C is 104 % of control.

And the T/C [2]?
Its T/C is 122 % of control.

Which T/C [2] does the source give for `COc1cc(O)c2c(O)c3c(c4c2c1[C@]1(C4)C(C)=CCCC1(C)C)[C@H](O)[C@@]1(O)CC(=O)C(C(N)=O)=C(O)[C@@]1(O)C3=O` here?
The T/C was 55 % of control.

What about the T/C [3] of the same molecule?
The T/C was 58 % of control.

What about the T/C [4] of the same molecule?
The T/C was 42 % of control.

What does the source list for `O=C1C(O)=C(c2ccccc2)C(=O)C(O)=C1c1ccccc1`?
T/C (dose: 75.0 mg/kg/injection, schedule: Q04DX003 (sc), vehicle: saline): 80 % of control; T/C (dose: 150.0 mg/kg/injection, schedule: Q04DX003 (sc), vehicle: saline): 71 % of control

What does the source list for `CC[C@]1(O)C[C@H]2CN(CCc3c([nH]c4ccccc34)[C@@](C(=O)OC)(c3cc4c(cc3OC)N(C=O)[C@H]3[C@@](O)(C(=O)OC)[C@H](OC(C)=O)[C@]5(CC)C=CCN6CC[C@]43[C@@H]65)C2)C1`?
T/C (dose: 0.13 mg/kg/injection, schedule: Q01DX010 (sc), vehicle: saline): 69 % of control; T/C (dose: 0.25 mg/kg/injection, schedule: Q01DX010 (sc), vehicle: saline): 102 % of control; T/C (dose: 0.5 mg/kg/injection, schedule: Q01DX010 (sc), vehicle: saline): 1 % of control

`N=C(N)Sc1ccccn1` was tested. Which T/C (dose: 1.25 mg/kg/injection, schedule: Q01DX010 (sc), vehicle: saline) did it give?
The T/C was 83 % of control.

What about the T/C (dose: 2.5 mg/kg/injection, schedule: Q01DX010 (sc), vehicle: saline) of the same molecule?
The T/C was 72 % of control.

What about the T/C (dose: 5.0 mg/kg/injection, schedule: Q01DX010 (sc), vehicle: saline) of the same molecule?
Its T/C is 52 % of control.

What about the T/C (dose: 10.0 mg/kg/injection, schedule: Q01DX010 (sc), vehicle: saline) of the same molecule?
Its T/C is 29 % of control.

What about the T/C [5] of the same molecule?
Its T/C is 158 % of control.

What about the T/C [6] of the same molecule?
Its T/C is 167 % of control.

`COc1cccc2c1C(=O)c1c(O)c3c(c(O)c1C2=O)C[C@@](O)(C(=O)CO)C[C@@H]3OC1CC(N)CC(C)O1` (stereo not given in full) was tested. Which T/C (dose: 1.5 mg/kg/injection, schedule: Q01DX010 (sc), vehicle: water) did it give?
Its T/C is 23 % of control.

Which results are given for `Cc1cc(Nc2ccc3c(c2)OCO3)c2cc3c(cc2n1)OCO3`?
T/C (dose: 150.0 mg/kg/injection, schedule: Q04DX003 (sc), vehicle: Klucel (hydroxypropylcellulose) (HPC)): 113 % of control; T/C (dose: 300.0 mg/kg/injection, schedule: Q04DX003 (sc), vehicle: Klucel (hydroxypropylcellulose) (HPC)): 155 % of control; T/C (dose: 1200.0 mg/kg/injection, schedule: Q04DX003 (sc), vehicle: Klucel (hydroxypropylcellulose) (HPC)): 123 % of control

Which T/C [10] does the source give for `CCCC(=O)OCc1cc(=O)n(C)c2c3c4c(cc12)c(C)cc(=O)n4CO3` here?
The T/C was 89 % of control.

What about the T/C [8] of the same molecule?
The T/C was 70 % of control.

And the T/C [11]?
The T/C was 48 % of control.

And the T/C [9]?
The T/C was 63 % of control.

With `NC1=NCN(C2OC(CO)C(O)C2O)C(=O)N1` (stereo not given) as the molecule, how does the T/C [5] read?
The T/C was 117 % of control.

And the T/C [6]?
Its T/C is 174 % of control.

And the T/C (dose: 83.3 mg/kg/injection, schedule: Q04DX003 (ip), vehicle: saline)?
The T/C was 117 % of control.

What about the T/C (dose: 100.0 mg/kg/injection, schedule: Q01DX010 (ip), vehicle: saline) of the same molecule?
Its T/C is 62 % of control.

And the T/C (dose: 100.0 mg/kg/injection, schedule: Q01DX010 (sc), vehicle: saline)?
Its T/C is 86 % of control.

And the T/C (dose: 166.66 mg/kg/injection, schedule: Q04DX003 (ip), vehicle: saline)?
The T/C was 89 % of control.

What about the T/C (dose: 333.33 mg/kg/injection, schedule: Q04DX003 (ip), vehicle: saline) of the same molecule?
The T/C was 56 % of control.

And the T/C (dose: 666.65 mg/kg/injection, schedule: Q04DX003 (ip), vehicle: saline)?
The T/C was 39 % of control.

Which T/C [7] does the source give for `CN(C)CCN1C(=O)c2cccc3cc(N)cc(c23)C1=O` here?
Its T/C is 157 % of control.

And the T/C (dose: 64.0 mg/kg/injection, schedule: Q04DX003 (sc), vehicle: saline with Tween-80)?
Its T/C is 113 % of control.

Which results are given for `COC(=O)[C@@]12OC[C@]34[C@H]([C@@H](O)[C@@H]1O)[C@@]1(C)CC(=O)C(O)=C(C)[C@@H]1C[C@H]3OC(=O)[C@H](OC(=O)/C=C(\C)C(C)C)[C@@H]24`?
T/C (dose: 0.25 mg/kg/injection, schedule: Q04DX003 (sc), vehicle: saline + alcohol): 115 % of control; T/C (dose: 0.5 mg/kg/injection, schedule: Q01DX010 (sc), vehicle: saline + alcohol): 101 % of control; T/C (dose: 0.5 mg/kg/injection, schedule: Q04DX003 (sc), vehicle: saline + alcohol): 91 % of control; T/C (dose: 1.0 mg/kg/injection, schedule: Q04DX003 (sc), vehicle: saline + alcohol): 114 % of control; T/C (dose: 2.0 mg/kg/injection, schedule: Q04DX003 (sc), vehicle: saline + alcohol): 59 % of control
